According to PMC5625163, “Incompatibility of chemical protein synthesis inhibitors with accurate measurement of extended protein degradation rates” (Pharmacology Research & Perspectives, 2017):
Structures can show the parent of a compound that is named as a salt. Where two headings read alike, the source gives them in different places. Starred links: 1 amine or outer side, 2 acyl side, 3 side chain; linkers in the order of their positions; H or OH if unused. Positions of bridges follow the written chain, without caps; N, C: chain ends. Non-standard residues stand in square brackets, D forms with d. Residues, ends and D or L forms follow the SMILES beside them. Chains are numbered I, II in the order given. Actinocin(9to1) = Cc1c2oc3c(C)ccc(C(=O)[*:1])c3nc-2c(C(=O)[*:2])c(N)c1=O; NMeV = CN[C@H](C(=O)O)C(C)C; Sar = CNCC(=O)O

How the values were obtained:
[1] = Standard MTT cell viability assay in primary rat hepatocytes; format: cell-based; settings: male, Sprague-Dawley
Experimental: Primary rat hepatocytes (PRH) were purchased from Invitrogen (Paisley, UK), isolated from male Sprague–Dawley rats at 9 weeks old (Lot. RS745). Cryopreserved PRH were thawed in a 37°C water bath for approximately 2 min until contents were around 90% thawed. Once thawed, the hepatocytes were added to 50 mL of prewarmed plating media (William's E media without phenol red supplemented with 5% FBS, 1 μmol/L dexamethasone, 1% solution of penicillin/streptomycin, 4 μg/mL bovine insulin, 2 mmol/L GlutaMAX™, and 15 mmol/L HEPES (CHRM® supplement A), and centrifuged for 3 min at 55g at 18°C and the supernatant fraction discarded. The hepatocytes were then resuspended in plating media at 1 × 10^6 cells per ml density.
(§1) Standard MTT assays were performed on HepG2 and PRH cells to measure cell viability. 2 × 10^4 cells per well of HepG2 were seeded into 96‐well plates in DMEM with 10% FBS and left overnight in a 37°C humidified incubator to allow cells to adhere to the plate. PRH were seeded in collagen coated 96‐well plates at a density of 2 × 10^4 cells per well. Old media was removed and replaced with 0–300 μmol/L of protein synthesis inhibitors and incubated for 72 h. A vehicle control and control with no drug was included. A quantity of 20 μL of 5 mg/mL […] in HBSS was added to each well and incubated for 2 h. A quantity of 100 μL lysis buffer (50% v/v dimethylformahyde and 20% v/v sodium dodecyl sulphate) was added to each well and the plate was incubated overnight at 37°C. The absorbance was quantified at 570 nm by a Tecan GENios micoplate reader (Germany).
(§2) Cycloheximide was incubated at 0–300 μmol/L and emetine at 0–30 μmol/L for both leucine incorporation and MTT assays.
(§3) The IC50 (concentration causing 50% protein synthesis inhibition), CC50 (concentration causing 50% cell viability), and CC10 (concentration causing 90% cell viability) were calculated by nonlinear regression of drug concentration versus leucine incorporation and MTT concentration–response graphs, respectively, using Graphpad Prism 3 software. The IC50 and CC50 values derived from the single inhibitor analyses were used for subsequent fixed‐ratio isobologram two‐drug combination analyses.

[2] = system: HepG2 cells; assay: [3H]-leucine incorporation protein synthesis inhibition assay in HepG2 cells; format: cell-based; settings: Homo sapiens, read-out: IC50 protein synthesis inhibition
[3] = system: HepG2 cells; assay: Standard MTT cell viability assay in HepG2 cells; format: cell-based, human; settings: 72 h
Experimental: as §1, §2, §3

[4] = Standard MTT cell viability assay in HepG2 cells; format: cell-based, human; settings: human
Experimental: as §1, §2, §3

[5] = system: primary rat hepatocytes (PRH); assay: [3H]-leucine incorporation protein synthesis inhibition assay in primary rat hepatocytes; format: cell-based; settings: Hepatocyte, 72 h, read-out: IC50 protein synthesis inhibition
[6] = system: HeLa cells; settings: cited from earlier work
[7] = system: Huh‐7 cells; settings: at 10 μmol/L in Huh‐7 cells; ref Yin Low et al. (2009); cited from earlier work
[8] = system: HeLa cells; design: method as in Dudani et al. (1988); settings: at 0.9 mmol/L in HeLa cells; ref Dudani et al. (1988); cited from earlier work
[9] = PRH, 72 h, single inhibitor, MTT, mean ± SD, read-out: CC50 cytotoxicity (50% cell viability)
[10] = HepG2 cells, single inhibitor, MTT
[11] = HepG2 cells, 72 h, single inhibitor, MTT, mean ± SD, read-out: CC50 cytotoxicity (50% cell viability)

IC50 ([2]; HepG2 cells, 72 h, single inhibitor, mean ± SD) [nM]	Compound	CC50 at 72 h [1, 9] [nM]	IC50 ([2]; HepG2, 72 h) [nM]	CC10 (90% cell viability concentration) [3, 10] [nmol/L]	CC50 at 72 h [4, 11] [nM]	IC50 [5] [nM]	concentration sufficient to cause cell toxicity ([6]; HeLa cells, ref Sawicki and Godman (1971)) [µmol/L]	cell viability [7]	concentration causing cytotoxicity ([6]; human cell lines, including HeLa cells, ref Dudani et al. (1988)) [µmol/L]	CC50 at 72 h [1] [nM]	protein synthesis inhibition [8] [%]	CC10 (90% cell viability concentration) ([3]; human) [nmol/L]	CC50 at 72 h [4] [nM]	IC50 ([5]; PRH, single inhibitor, mean ± SD) [nM]
	C[C@@H]1C[C@@H]([C@H](O)CC2CC(=O)NC(=O)C2)C(=O)[C@@H](C)C1 [cycloheximide]	680 ± 1300	6600 ± 2500	24	570 ± 510	290 ± 90								
	Cc1c2oc3c(C)ccc(C(=O)N[C@@H]4C(=O)N[C@H](C(C)C)C(=O)N5CCC[C@H]5C(=O)N(C)CC(=O)N(C)[C@@H](C(C)C)C(=O)O[C@@H]4C)c3nc-2c(C(=O)N[C@@H]2C(=O)N[C@H](C(C)C)C(=O)N3CCC[C@H]3C(=O)N(C)CC(=O)N(C)[C@@H](C(C)C)C(=O)O[C@@H]2C)c(N)c1=O [actinomycin D] (I: T[dV]P[Sar][NMeV] / II: T[dV]P[Sar][NMeV]; ester I:1-I:C, II:1-II:C; linker I:N-II:N via Actinocin(9to1))	0.98 ± 1.8	39 ± 7.4	0.17	6.2 ± 7.3	1.7 ± 1.8	0.08							
	CC[C@H]1CN2CCc3cc(OC)c(OC)cc3[C@@H]2C[C@@H]1C[C@H]1NCCc2cc(OC)c(OC)cc21 [emetine, emetine dihydrochloride hydrate]	180	2200 ± 1400	7.0	81 ± 9	620 ± 920		over 90%						
1600 ± 1200	COc1ccc(C[C@H](N)C(=O)N[C@H]2[C@@H](O)[C@H](n3cnc4c(N(C)C)ncnc43)O[C@@H]2CO)cc1 [puromycin, puromycin dihydrochloride]								0.9	1600 ± 1000	79.6	110	1300 ± 64	2000 ± 2000
